Legend:
ZAK = ZAK (Homo sapiens, UniProt Q9NYL2); assay: SILAC-ABPP with acylphosphate-ATP probe; assay type: binding; set-up: Full-length cDNA encoding human ZAK-13 (BC001401); expressed in transfected cells; details: 100 μM, 30 min; ZAK-transfected HEK293T proteome
From the text: The gel signals for IA-labeling of WT-ZAK were blocked by pretreatment with HNE over a concentration range that closely matched the HNE-sensitivity profile observed for C22 in competitive isoTOP-ABPP experiments (FIG. 4b, compare to FIG. 3a). […] Considering further that C22 is predicted to reside adjacent to the ATP-binding loop of ZAK, we postulated that the HNE-induced loss of kinase activity might be due to blockade of ATP-binding.
HEK-293T cells with stable expression of wild-type ZAK were passaged six times in DMEM medium minus 1-lysine and 1-arginine (Thermo) supplemented 10% dialyzed FBS (Gemini), 1% PSQ (1% vol/vol 10,000 units penicillin, 10 mg streptomycin, 29.2 mg lglutamate solution) and 100 μg/mL [^13C6, ^15N4] 1-arginineHCl and [^13C6,^15N2] 1-lysineHCl (heavy) or 1-arginineHCl and 1-lysineHCl (light) (Sigma-Aldrich). […] The trypsin digested samples were analysed by LC-MS/MS and enriched kinase peptides were identified by SEQUEST and DTASelect. The amounts of probe-labeled kinases with and without HNE treatment were quantified using the CIMAGE module that was developed for quantitative SILAC-ABPP chemoproteomic profiling. As internal controls, light and heavy proteomes were trypsin digested without probe labeling and streptavidin enrichment, and analysed by LC-MS/MS to quantify the basic level of each kinase between light and heavy samples. […]

JNK pathway activation = assay: Western blotting of phospho-JNK in WT-ZAK-transfected HEK-293T cells; assay type: cell-based, human
Experimental: We next set out to assess the functional effects of HNE modification of ZAK in human cells. HEK-293T cells were stably transfected with cDNAs for WT-ZAK, C22A-ZAK, or K45M-ZAK and the activation state of their MAPK signaling pathways was monitored by western blotting with anti-phosphoprotein antibodies. […] We next treated cells with H2O2 (1 mM, 30 min) to induce oxidative stress, a process that is known to activate the JNK pathway^41,42. H2O2 treatment stimulated JNK activity in both WT- and C22A-ZAK-transfected cells (but not K45M-ZAK-transfected cells), with WT-ZAK cells showing the greater level of activation (FIG. 5b,c). […] We interpret these findings to indicate the existence of both ZAK-dependent and ZAK-independent pathways for HNE modulation of JNK activation (FIG. 5d). By modifying C22 on ZAK, HNE blocks the contribution that this kinase makes to the activation of the JNK pathway. […]
Mouse and rabbit monoclonal antibodies against phospho-ERK 1/2 (Thr202/Tyr204), phosphor-SAPK/JNK (Thr183/[…]), phosphor-p38 MAPK (Thr180/[…]) and total ERK 1/2, SAPK/JNK and p38 MAPK were purchased from Cell Signaling Technology. […] Protein band intensities were quantified by ImageJ8 and ratios of phosphor-MAPK over total MAPK were computed. […]

Chain of ZAK (Q9NYL2 1-455 isoform Q9NYL2-2): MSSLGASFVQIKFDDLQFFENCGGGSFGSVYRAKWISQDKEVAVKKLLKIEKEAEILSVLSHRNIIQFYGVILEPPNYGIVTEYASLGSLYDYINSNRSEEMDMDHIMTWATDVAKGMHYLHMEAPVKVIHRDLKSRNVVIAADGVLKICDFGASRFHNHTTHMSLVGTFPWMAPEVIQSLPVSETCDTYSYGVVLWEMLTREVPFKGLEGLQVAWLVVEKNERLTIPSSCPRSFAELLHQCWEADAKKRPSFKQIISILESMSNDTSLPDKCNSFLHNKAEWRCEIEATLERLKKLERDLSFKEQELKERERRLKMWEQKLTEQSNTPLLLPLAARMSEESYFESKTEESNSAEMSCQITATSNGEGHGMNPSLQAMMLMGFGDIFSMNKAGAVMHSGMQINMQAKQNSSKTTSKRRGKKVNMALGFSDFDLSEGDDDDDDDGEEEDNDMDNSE

Question: With CCCCCC(O)/C=C/C=O (stereo not drawn) [4-HNE, 4-Hydroxynonenal] as the molecule, how does the “acylphosphate-ATP probe-labeling of ZAK” value (ZAK) read?
Answer: profoundly reduced

Question: What about the “JNK activation by HNE alone, WT-ZAK-transfected cells” value (JNK pathway activation; 50 or 100 μM, 60 min) of the same molecule?
Answer: mostly unaffected

Question: And the “H2O2-dependent JNK activation, WT-ZAK cells” value (JNK pathway activation; pre-treatment 100 μM, 30 min, then H2O2 1 mM, 30 min)?
Answer: blocking H2O2-dependent JNK activation
